In patent publication US9550811B2, “Peptide scaffold design” (BIONOR IMMUNO AS, priority 2010, dated 2017):
Where no end group is shown, it is not given here. [ ]: non-standard residue; d: D form. Cit = NC(=O)NCCC[C@H](N)C(=O)O; Nle = CCCC[C@H](N)C(=O)O

Assays:
human PBMCs [1] = type: cell-based
human PBMCs [2] = assay: Extracellular staining for biotinylated peptides (flow cytometry); type: cell-based
Procedure: 96-well U-bottom polystyrene plates (NUNC, cat no: 163320) were used for staining of human PBMCs. Briefly, 8 ul of N- or C-terminally biotinylated peptides according to table 1 or table 2 (i.e. 5 mM, 2.5 mM & 1.25 mM tested for each peptide; all peptides manufactured by Schafer) were incubated at 37° C. for 2 h with 40 ul of PBMC (12.5×10^6 cells/ml) from blood donors. Cells were then washed 3× with 150 ul of Cellwash (BD, cat no: 349524), then stained with Streptavidin-APC (BD, cat no: 554067) & Anti-hCD11c (eBioscience, cat no: 12-0116) according to manufacturer at 4° C. for 30 min aiming to visualize biotinylated peptides & dendritic cells, respectively. Cells were then washed 3× with 150 ul of Cellwash (BD, cat no: 349524), followed by resuspension in staining buffer (BD, cat no: 554656) before flow cytometry. Dendritic cells were gated as CD11c+ events outside lymphocyte region (i.e. higher FSC & SSC signals than lymphocytes). 200 000 total cells were acquired on a FACSCanto II flow cytometer with HTS loader, and histograms for both total cells & dendritic cells with respect to peptide-fluorescence (i.e. GeoMean) were prepared.

HLA-B7 = HLA-B7 (Homo sapiens, UniProt P01889); assay: REVEAL binding assay; details: score as percentage of the signal generated by the positive control peptide
HLA-B7, sequence (P61769 21-119): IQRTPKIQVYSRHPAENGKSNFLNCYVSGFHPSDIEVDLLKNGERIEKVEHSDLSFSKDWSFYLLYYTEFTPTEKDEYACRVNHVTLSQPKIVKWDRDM
HLA-B7, sequence (P01889 25-299): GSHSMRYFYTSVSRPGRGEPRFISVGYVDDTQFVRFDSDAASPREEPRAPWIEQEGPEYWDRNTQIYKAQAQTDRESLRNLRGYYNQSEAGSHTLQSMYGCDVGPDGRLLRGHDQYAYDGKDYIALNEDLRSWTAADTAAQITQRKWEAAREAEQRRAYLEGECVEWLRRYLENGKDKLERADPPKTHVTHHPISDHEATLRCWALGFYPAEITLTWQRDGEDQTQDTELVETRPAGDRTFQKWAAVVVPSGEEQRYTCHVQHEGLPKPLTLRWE
How it was run: (§1)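 Synthetic nonamer peptides were tested for their ability to bind and stabilize MHC class I–peptide complexes, detected by the native conformation of the complex. Each peptide is scored relative to a positive-control known T-cell epitope.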

HLA-B27 = HLA-B27 (Homo sapiens, UniProt P01889, D138H/D201E/E176V/E204Q/G107R/H137Y/K202T/N104T/N87E/Q56L/Q94K/R106L/R155S/R180L/S101D/S121N/S48T/Y140D/Y33H/Y91C); assay: REVEAL binding assay; details: score as percentage of the signal generated by the positive control peptide
How it was run: as §1

HLA-A2 = HLA-A2 (Homo sapiens, UniProt P04439, D140Y/D185E/D98H/E176V/E277Q/G131W/G231S/I119V/I121R/I166T/I218V/N151K/N90K/P208A/P217A/Q86G/Q94H/R138H/R169H); assay: REVEAL binding assay; details: score as percentage of the signal generated by the positive control peptide
How it was run: as §1

HLA-A3 = HLA-A3 (Homo sapiens, UniProt P04439); assay: REVEAL binding assay; details: score as percentage of the signal generated by the positive control peptide
HLA-A3, sequence (P04439 25-299): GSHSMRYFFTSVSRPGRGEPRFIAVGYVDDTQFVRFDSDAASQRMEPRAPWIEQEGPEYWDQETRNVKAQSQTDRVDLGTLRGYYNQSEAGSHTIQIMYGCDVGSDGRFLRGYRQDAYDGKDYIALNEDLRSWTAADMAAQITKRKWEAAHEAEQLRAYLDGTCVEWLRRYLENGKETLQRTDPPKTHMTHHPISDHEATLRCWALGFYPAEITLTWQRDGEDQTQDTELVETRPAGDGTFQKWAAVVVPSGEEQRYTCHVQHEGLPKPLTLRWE
HLA-A3, sequence (P61769 21-119, further chain): as the sequence (P61769 21-119) above
How it was run: as §1

HLA-A11 = HLA-A11 (Homo sapiens, UniProt P04439, A114D/F33Y/S129P); assay: REVEAL binding assay; details: score as percentage of the signal generated by the positive control peptide
How it was run: as §1

HLA-A1 = assay: REVEAL binding assay; details: score as percentage of the signal generated by the positive control peptide
HLA-B14 = assay: REVEAL binding assay; details: score as percentage of the signal generated by the positive control peptide
HLA-A24 = assay: REVEAL binding assay; details: score as percentage of the signal generated by the positive control peptide
Procedure: Binding properties to HLA for the ninemers listed in table 6 were tested for the following HLA-classes:
(§2) HLA-A1, HLA-A2, HLA-A3, HLA-A11, HLA-A24, HLA-A29, HLA-B7, HLA-B8, HLA-B14, HLA-B15, HLA-B27, HLA-B35, HLA-B40.
(§3) The REVEAL™ binding assay determined the ability of each candidate peptide to bind to one or more MHC class I alleles and stabilizing the MHC-peptide complex. […] Detection is based on the presence or absence of the native conformation of the MHC-peptide complex. Each peptide is given a score relative to the positive control peptide, which is a known T cell epitope.

HLA-B40 = assay: REVEAL binding assay; details: score as percentage of the signal generated by the positive control peptide
How it was run: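 Nonamer peptides were tested for their ability to bind MHC class I and stabilize the native-conformation MHC–peptide complex. Each score is the signal as a percentage of a known T cell epitope positive control, with a pass/fail call; an intermediate-affinity control peptide confirms assay performance.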

HLA-A29 = assay: REVEAL binding assay; details: score as percentage of the signal generated by the positive control peptide
From the text: as §2, §3

HLA-B15 = assay: REVEAL binding assay; details: score as percentage of the signal generated by the positive control peptide
From the text: as §2, §3

HLA-B35 = assay: REVEAL binding assay; details: score as percentage of the signal generated by the positive control peptide
From the text: as §2, §3

HLA-B8 = assay: REVEAL binding assay; details: score as percentage of the signal generated by the positive control peptide

Substance	Intracellular staining, median (human PBMCs [1])	Extracellular staining, median (human PBMCs [2])	REVEAL binding score, HLA-type B7 (HLA-B7) [%]	REVEAL binding score, HLA-type B27 (HLA-B27) [%]	REVEAL binding score, HLA-type A2 (HLA-A2) [%]	REVEAL binding score, HLA-type A3 (HLA-A3) [%]	REVEAL binding score, HLA-type A11 (HLA-A11) [%]	REVEAL binding score, HLA-type A1 (HLA-A1) [%]	REVEAL binding score, HLA-type B14 (HLA-B14) [%]	REVEAL binding score, HLA-type A24 (HLA-A24) [%]	REVEAL binding score, HLA-type B40 (HLA-B40) [%]	REVEAL binding score, HLA-type A29 (HLA-A29) [%]	REVEAL binding score, HLA-type B15 (HLA-B15) [%]	REVEAL binding score, HLA-type B35 (HLA-B35) [%]	REVEAL binding score, HLA-type B8 (HLA-B8) [%]
EEGYIPLVGAPLGEEVARALAHGVRV [compound 10, HCV (Not scaffold)]	1.16	1.95													
GGGYIPLVGAPLGGGVARALAHGVRV [compound 11, HCV (Not scaffold)]	2.01	2.62													
GYIPLVGAPLGGVARALAHGVRV [compound 5]	1.84	2.08													
RGYIPLVGAPLGRRRVARALAHGVRVR [compound 6]	5.35	2.20													
RGYLPAVGAPIGRRRVIRVIAHGLRLR [compound 7]	11.59	29.42													
RRGGGQIVGGVYLLPRRGPRLGVRATR [compound 14]	4.81	17.00													
RRGPVVHLTLRRRGQAGDDFS [compound 2, Neg control in scaffold, reference compound]	4.12	1.77													
RRGYIPLVGAPLGRRRVARALAHGVRV [compound 9]	3.25	2.06													
RRGYIPLVGAPLGRRVARALAHGVRV [compound 8]	6.92	3.06													
RRIRNLGRVIETLTLZGYIPLIGARRIRNLGRVIETLTLZGYIPLIGAR [compound 20]	13.25	126.5													
RRSRNLGKVIDTLTCRRLMGYIPLVGA [compound 13]	21.43	16.80													
VIETLTSGF			0.71	1.38	4.84	2.55	3.66	14.61	0.35	0.82	24.04	13.07	10.37	2.39	12.96
VIRVIAHGL			29.93	1.16	8.60	4.29	4.54	18.66	0.55	0.28	52.64	27.12	9.64	2.51	32.81
VTGNIPGST			2.24	1.58	8.44	2.52	4.85	16.18	0.75	1.60	130.97	15.05	5.15	4.00	13.12
YATGNLPGC			0.76	2.44	22.46	3.67	2.16	8.10	0.41	1.20	77.49	18.82	5.09	4.52	9.51
YIPLVGAPL			41.87	0.69	35.00	5.29	3.54	21.80	0.13	4.51	30.22	31.09	54.57	99.81	33.10
YLPAVGAPI			7.70	0.51	75.80	2.58	3.07	15.76	0.12	4.65	64.34	28.40	49.63	2.03	17.92
YVTGNIPGS			2.70	1.98	6.88	5.34	5.18	13.33	0.76	2.71	88.29	10.29	6.16	4.42	12.40
[Cit]IGVRAT[Cit]R			14.59	0.86	8.17	25.16	8.27	19.68	0.17	0.50	18.45	16.67	14.45	8.51	12.09
[Nle]GYIPLIGA			1.78	1.42	10.43	3.13	7.27	17.87	0.29	1.33	60.84	27.85	11.07	5.89	21.35
